The subject of experiment [1] is Store Operated Calcium Entry (SOCE) in Jurkat cells. Description: Fura-2 single-cell Ca2+ measurement of tBHQ-induced SOCE in Jurkat cells. Type of experiment: cell-based, human. To be noted: for inhibition at 10 µM: Homo sapiens, SOCE modulation based on tBHQ-induced calcium influx. Here is the method: Immortalized line of human T lymphocyte Jurkat cells were achieved from ATCC (ATCC® TIB-152™, Rockville, Md., USA) and were cultured in Roswell Park Memorial Institute Medium (RPMI 1640; Sigma-Aldrich, Italy), supplemented with 10% heat-inactivated FBS (Gibco, Italy), 1-glutamine 50 mg/mL (Sigma-Aldrich, Italy), penicillin 10 U/mL and streptomycin […] (Sigma-Aldrich, Italy) at 37° C., under a 5% CO2 humidified atmosphere. For experiments, the cells were plated onto glass coverslips at concentrations of 6×10^4 per mL (24 mm diameter coverslips in 6 well plates).
Compounds were also tested on Jurkat cells in single-cell analysis using Fura-2 AM on cover-slips. Jurkat cells were loaded with 5 μM Fura-2 AM in presence of 0.02% of Pluronic-127 (both from Life Technologies, Italy) and 1 μM sulfinpyrazone in Krebs-Ringer buffer (KRB, 135 mM NaCl, 5 mM KCl, 0.4 mM KH2PO4, 1 mM MgSO4, 5.5 mM glucose, 20 mM HEPES, pH 7.4) containing 2 mM CaCl2 (30 min, room temperature). Afterwards, cells were washed and incubated with KRB for other 30 min to allow de-esterification of Fura-2AM. To measure store operated calcium entry, changes in cytosolic Ca^2+ were monitored upon depletion of the intracellular Ca^2+ stores. Experiments were carried out prior to and during exposure of the cells to the Ca^2+-free solution. In the absence of Ca^2+, the intracellular Ca^2+ stores were depleted by inhibition of the vesicular Ca^2+ pump by 2,5-t-butylhydroquinone (tBHQ, 50 μM; Sigma-Aldrich, Italy). Re-addition of 2 mM Ca^2+ allowed assessing the SOCE. During the experiments the cover-slips were mounted into acquisition chamber and placed on the stage of a Leica DMI6000 epi-fluorescent microscope equipped with S Fluor ×40/1.3 objective. Fura-2 was excited by alternate 340 and 380 nm using a Polychrome IV mono-chromator (Till Photon-ics, Germany) and the probe emission light was filtered through 520/20 band-pass filter and collected by a cooled CCD camera (Hamamatsu, Japan). The fluorescence signals were acquired and processed using MetaFluor software (Molecular Device, Sun-Nyvale, C A, USA). To quantify the differences in the amplitudes of Ca^2+ transients the ratio values were normalized using the formula ΔF/F0 (referred to as normalized Fura-2 ratio, “Norm. Fura ratio”). The percentage of SOCE modulation for each of 15 compounds was determined based on value of tBHQ-induced calcium influx into Jurkat cells. Data were analysed using Microsoft Excel and GraphPad Prism.

Experiment [2] concerns Store Operated Calcium Entry (SOCE) in BV-2 cells. In words: Fluo-4 fluorimetric assay of tBHQ-induced store operated calcium entry in BV-2 cells. Type of experiment: cell-based, mouse. To be noted: for inhibition at 10 µM: Mus musculus, SOCE inhibition based on tBHQ-induced calcium influx. The protocol: (A) BV-2 cells were plated in poly-d-lysine coated 24-well plate and incubated overnight. After 24 hours, cells were loaded with 2 μM Fluo-4 and placed in an extracellular solution containing 0 mM Ca^2+. Stores were depleted with 50 μM tBHQ and calcium influx was stimulated by the addition of 2 mM Ca^2+ alone (Ctrl), or in conbination with: compound with no activity (NM-3A), and compounds that positively (4-(1-(4-(3,5-bis(trifluoromethyl)-1H-pyrazol-1-yl)phenyl)-1H-1,2,3-triazol-4-yl)benzoic acid) and negatively (3-(1-(4-(4-(ethoxycarbonyl)-5-(trifluoromethyl)-1H-pyrazol-1-yl)phenyl)-1H-1,2,3-triazol-4-yl)benzoic acid) regulate SOCE. Calcium responses are expressed as changes in fluorescence intensity before and after the addition of selected modulators. (B) BV-2 cells were assayed for a calcium response to different concentrations of 3-(1-(4-(4-(ethoxycarbonyl)-5-(trifluoromethyl)-1H-pyrazol-1-yl)phenyl)-1H-1,2,3-triazol-4-yl)benzoic acid and 4-(1-(4-(3,5-bis(trifluoromethyl)-1H-pyrazol-1-yl)phenyl)-1H-1,2,3-triazol-4-yl)benzoic acid (0.1-0.3-1-3-10-30-100 μM) using Fluo-4 fluorimetric assay. Concentration-response curves represent the AUC % of both compounds as compared to positive control.
Immortalized primary mouse microglial BV-2 cells were obtained from ATCC (ATCC® CRL-2540™, Rockville, Md., USA) and were cultured in Dulbecco's Modified Eagle's Medium (DMEM; Sigma-Aldrich, Italy), supplemented with 10% heat-inactivated FBS (Gibco, Italy), 1-glutamine 50 mg/mL (Sigma-Aldrich, Italy), penicillin 10 U/mL and streptomycin […] (Sigma-Aldrich, Italy) at 37° C., under a 5% CO2 humidified atmosphere. For experiments, the cells were plated 2×10^4 per ml in 24 well plates) or onto glass coverslips at concentrations of 4×10^4 per mL (24 mm diame-ter coverslips in 6 well plates).
BV-2 cells were loaded with 5 μM Fluo-4 AM in presence of 0.02% of Pluronic-127 (both from Life Technologies, Italy) and 10 μM sulfinpyrazone in Krebs-Ringer buffer (KRB, 135 mM NaCl, 5 mM KCl, 0.4 mM KH2PO4, 1 mM MgSO4, 5.5 mM glucose, 20 mM HEPES, pH 7.4) containing 2 mM CaCl2 (30 min, room temperature). Subsequently, cells were washed and incubated with KRB for other 30 min to allow de-esterification of Fluo-4 AM. Experiments were carried out prior to and during exposure of the cells to the Ca^2+-free solution. In the absence of Ca^2+, the intracellular Ca^2+ stores were depleted by 2,5-t-butylhydroquinone (tBHQ, 50 μM; Sigma-Aldrich, Italy), a SERCA poison, and then calcium 2 mM was re-added to the extracellular solution. Fluorescence is then monitored sequentially for a second in each well for 600 seconds with excitation at 494 nm and an emission wavelength at 516 nm on the V3 Victor plate-reader (Perkin Elmer), generating time-curves for each well. Data were analysed using Microsoft Excel and GraphPad Prism.
The percentage of SOCE inhibition for each compound was determined based on value of tBHQ-induced calcium influx into BV-2 cells (Table 2).

Usually inhibition stands for the share of the control response that was lost under treatment.

As to `O=C(O)c1cnn(-c2ccc(-c3cn(-c4ccc(Cl)cc4)nn3)cc2)c1C(F)(F)F` [1-(4-(1-(4-chlorophenyl)-1H-1,2,3-triazol-4-yl)phenyl)-5-(trifluoromethyl)-1H-pyrazole-4-carboxylic acid], the “% Activation (10 μM)” value in experiment [1] was 100.13%.

Take `O=C(O)c1cccc(-c2cn(-c3ccc(-n4nc(C(F)(F)F)cc4C(F)(F)F)cc3)nn2)c1` [3-(1-(4-(3,5-bis(trifluoromethyl)-1H-pyrazol-1-yl)phenyl)-1H-1,2,3-triazol-4-yl)benzoic acid]: the inhibition at 10 µM in experiment [2] (10 μM) was determined as 38.7%; in experiment [1] it was 38.3%.

Turning to `O=C(O)c1cccc(-c2cn(-c3ccc(-n4ncc(C(=O)OCCN5CCOCC5)c4C(F)(F)F)cc3)nn2)c1` [3-(1-(4-(4-((2-morpholinoethoxy)carbonyl)-5-(trifluoromethyl)-1H-pyrazol-1-yl)phenyl)-1H-1,2,3-triazol-4-yl)benzoic acid], the inhibition at 10 µM was 95.7% in experiment [2] (10 μM) and 25.1% in experiment [1].

`O=C(O)c1cccc(-c2cn(-c3ccc(-n4ncc(C(=O)OCc5ccccc5)c4C(F)(F)F)cc3)nn2)c1` [3-(1-(4-(4-((benzyloxy)carbonyl)-5-(trifluoromethyl)-1H-pyrazol-1-yl)phenyl)-1H-1,2,3-triazol-4-yl)benzoic acid]: the inhibition at 10 µM came out at 87% in experiment [2] (10 μM) and 33.5% in experiment [1].

Take `O=C(O)c1cccc(-c2cn(-c3ccc(-n4ncc(C(=O)OCc5ccncc5)c4C(F)(F)F)cc3)nn2)c1` [3-(1-(4-(4-((pyridin-4-ylmethoxy)carbonyl)-5-(trifluoromethyl)-1H-pyrazol-1-yl)phenyl)-1H-1,2,3-triazol-4-yl)benzoic acid]: the inhibition at 10 µM in experiment [2] (10 μM) was 54.6%; in experiment [1] it was 57%.

In the case of `CC(C)OC(=O)c1cnn(-c2ccc(-n3cc(-c4cccc(C(=O)O)c4)nn3)cc2)c1C(F)(F)F` [3-(1-(4-(4-(isopropoxycarbonyl)-5-(trifluoromethyl)-1H-pyrazol-1-yl)phenyl)-1H-1,2,3-triazol-4-yl)benzoic acid], the inhibition at 10 µM turned out to be 74.6% in experiment [2] (10 μM) and 93.9% in experiment [1].

For the compound `COC(=O)c1cnn(-c2ccc(-n3cc(-c4cccc(C(=O)O)c4)nn3)cc2)c1C(F)(F)F` [3-(1-(4-(4-(methoxycarbonyl)-5-(trifluoromethyl)-1H-pyrazol-1-yl)phenyl)-1H-1,2,3-triazol-4-yl)benzoic acid], the inhibition at 10 µM was found to be 12.4% in experiment [2] (10 μM) and 21.8% in experiment [1].

In the case of `O=C(O)c1cccc(-n2cc(-c3ccc(-n4nc(C(F)(F)F)cc4C(F)(F)F)cc3)nn2)c1` [3-(4-(4-(3,5-bis(trifluoromethyl)-1H-pyrazol-1-yl)phenyl)-1H-1,2,3-triazol-1-yl)benzoic acid], the figures for the inhibition at 10 µM in experiment [2] (10 μM) and in experiment [1] were 30.5% and 39.7%, respectively.

`CCOC(=O)c1cnn(-c2ccc(-c3cn(-c4cccc(C(=O)O)c4)nn3)cc2)c1C(F)(F)F` [3-(4-(4-(4-(ethoxycarbonyl)-5-(trifluoromethyl)-1H-pyrazol-1-yl)phenyl)-1H-1,2,3-triazol-1-yl)benzoic acid]: the figures for the inhibition at 10 µM in experiment [2] (10 μM) and in experiment [1] were 43.3% and 63.6%, respectively.

Regarding `O=C(O)c1ccc(-c2cn(-c3ccc(-n4nc(C(F)(F)F)cc4C(F)(F)F)cc3)nn2)cc1` [4-(1-(4-(3,5-bis(trifluoromethyl)-1H-pyrazol-1-yl)phenyl)-1H-1,2,3-triazol-4-yl)benzoic acid], the “% Activation (10 μM)” value in experiment [2] (10 μM, potentiation of calcium entry) is 125.15%; in experiment [1] it was 136.42%. The “Regulation of SOCE (calcium response, representative traces FIG. 2A)” value in experiment [2] (Fluo-4, 50 μM tBHQ, 2 mM Ca2+ re-addition) is given as “positively”.

Turning to `CCOC(=O)c1cnn(-c2ccc(-n3cc(-c4ccc(C(=O)O)cc4)nn3)cc2)c1C(F)(F)F` [4-(1-(4-(4-(ethoxycarbonyl)-5-(trifluoromethyl)-1H-pyrazol-1-yl)phenyl)-1H-1,2,3-triazol-4-yl)benzoic acid], the inhibition at 10 µM in experiment [2] (10 μM) is 40.1%; in experiment [1], 32.3%.
